Where two headings read alike, the source gives them in different places.
Experiments:
TYK1/LTK = TYK1/LTK (Homo sapiens, UniProt P29376); details: 1 μM; Run 1, Run 2
SGK1 = molecular target: T1, SGK1 (Homo sapiens, UniProt O00141); details: 1 μM; Run 1, Run 2
T1 sequence (O00141 1-431): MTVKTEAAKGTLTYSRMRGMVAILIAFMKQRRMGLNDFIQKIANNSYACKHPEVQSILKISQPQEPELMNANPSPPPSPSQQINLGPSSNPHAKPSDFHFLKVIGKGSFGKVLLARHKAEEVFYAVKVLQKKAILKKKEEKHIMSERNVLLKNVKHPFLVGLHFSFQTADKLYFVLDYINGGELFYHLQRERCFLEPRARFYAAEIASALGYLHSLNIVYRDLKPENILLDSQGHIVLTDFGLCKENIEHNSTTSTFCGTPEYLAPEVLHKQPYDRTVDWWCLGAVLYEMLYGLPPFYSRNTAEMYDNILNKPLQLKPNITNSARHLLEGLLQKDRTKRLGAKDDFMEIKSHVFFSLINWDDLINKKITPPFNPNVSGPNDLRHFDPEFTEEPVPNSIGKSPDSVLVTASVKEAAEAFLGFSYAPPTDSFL

IKKa/CHUK = molecular target: T2, IKKa/CHUK (Homo sapiens, UniProt O15111); assay: biochemical; details: read-out: % enzyme activity, 1 μM; Run 1, Run 2
T2 sequence (O15111 1-745): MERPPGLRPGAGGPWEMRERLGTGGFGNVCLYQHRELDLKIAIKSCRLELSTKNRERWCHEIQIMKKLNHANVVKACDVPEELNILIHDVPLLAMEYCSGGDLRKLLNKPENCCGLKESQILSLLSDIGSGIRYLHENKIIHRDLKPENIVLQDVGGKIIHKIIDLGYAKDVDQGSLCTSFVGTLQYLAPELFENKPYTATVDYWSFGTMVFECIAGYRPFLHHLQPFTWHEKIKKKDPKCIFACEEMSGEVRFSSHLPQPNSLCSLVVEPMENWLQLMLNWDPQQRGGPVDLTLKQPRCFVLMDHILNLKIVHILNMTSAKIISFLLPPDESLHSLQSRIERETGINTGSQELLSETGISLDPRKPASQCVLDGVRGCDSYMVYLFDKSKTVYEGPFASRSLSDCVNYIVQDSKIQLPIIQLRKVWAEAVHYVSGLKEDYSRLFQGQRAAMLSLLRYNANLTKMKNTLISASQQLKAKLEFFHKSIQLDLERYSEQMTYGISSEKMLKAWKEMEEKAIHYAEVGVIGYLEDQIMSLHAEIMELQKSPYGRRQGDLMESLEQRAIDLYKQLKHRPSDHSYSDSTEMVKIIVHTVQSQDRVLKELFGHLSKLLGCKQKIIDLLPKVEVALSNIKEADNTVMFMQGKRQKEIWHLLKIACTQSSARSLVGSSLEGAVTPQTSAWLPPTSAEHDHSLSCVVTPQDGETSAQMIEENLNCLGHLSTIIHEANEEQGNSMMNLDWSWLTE

FGFR4 = FGFR4 (Homo sapiens, UniProt P22455); details: 1 μM; Run 1, Run 2
Chain of FGFR4 (P22455 22-802): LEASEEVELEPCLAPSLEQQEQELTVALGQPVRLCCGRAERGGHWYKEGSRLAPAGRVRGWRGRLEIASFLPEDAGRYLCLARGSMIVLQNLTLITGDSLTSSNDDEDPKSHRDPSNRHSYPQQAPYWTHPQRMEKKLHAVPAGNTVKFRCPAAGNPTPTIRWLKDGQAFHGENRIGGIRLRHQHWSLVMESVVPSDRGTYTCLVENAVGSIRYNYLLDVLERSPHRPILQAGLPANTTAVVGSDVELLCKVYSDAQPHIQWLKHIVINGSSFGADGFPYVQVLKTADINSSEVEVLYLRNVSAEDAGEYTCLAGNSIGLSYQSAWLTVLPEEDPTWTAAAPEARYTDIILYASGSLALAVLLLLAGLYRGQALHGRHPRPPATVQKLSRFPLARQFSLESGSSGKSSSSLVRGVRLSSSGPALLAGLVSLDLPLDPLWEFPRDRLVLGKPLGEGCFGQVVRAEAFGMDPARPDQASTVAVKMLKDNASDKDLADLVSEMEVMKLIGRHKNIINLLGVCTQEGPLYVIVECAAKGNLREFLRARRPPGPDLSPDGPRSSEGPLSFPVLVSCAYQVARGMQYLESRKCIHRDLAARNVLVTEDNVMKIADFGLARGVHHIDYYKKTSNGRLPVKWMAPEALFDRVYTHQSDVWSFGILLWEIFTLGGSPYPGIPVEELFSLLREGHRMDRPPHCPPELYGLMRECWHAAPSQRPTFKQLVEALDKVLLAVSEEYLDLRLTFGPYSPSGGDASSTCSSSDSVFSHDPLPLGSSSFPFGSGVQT

CYP3A4 = CYP3A4 (Homo sapiens, UniProt P08684); details: human liver microsomes
Chain of CYP3A4 (P08684 whole entry): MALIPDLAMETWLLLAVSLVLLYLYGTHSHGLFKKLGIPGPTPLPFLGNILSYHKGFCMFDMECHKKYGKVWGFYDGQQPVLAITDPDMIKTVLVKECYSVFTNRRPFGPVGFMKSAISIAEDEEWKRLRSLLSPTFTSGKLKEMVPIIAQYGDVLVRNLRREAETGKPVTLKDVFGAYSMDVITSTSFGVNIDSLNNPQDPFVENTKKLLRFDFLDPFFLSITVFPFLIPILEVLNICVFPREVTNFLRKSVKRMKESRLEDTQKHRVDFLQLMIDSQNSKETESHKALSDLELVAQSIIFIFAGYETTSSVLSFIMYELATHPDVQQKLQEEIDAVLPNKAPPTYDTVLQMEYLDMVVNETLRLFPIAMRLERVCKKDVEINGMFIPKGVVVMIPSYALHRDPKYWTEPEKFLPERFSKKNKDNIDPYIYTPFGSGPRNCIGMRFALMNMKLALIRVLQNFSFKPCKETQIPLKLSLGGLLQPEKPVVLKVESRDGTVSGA

LYN B = LYN B (Homo sapiens, UniProt P07948); assay: biochemical; details: read-out: % enzyme activity, 1 μM; Run 1, Run 2
Chain of LYN B (P07948 1-491 isoform P07948-2): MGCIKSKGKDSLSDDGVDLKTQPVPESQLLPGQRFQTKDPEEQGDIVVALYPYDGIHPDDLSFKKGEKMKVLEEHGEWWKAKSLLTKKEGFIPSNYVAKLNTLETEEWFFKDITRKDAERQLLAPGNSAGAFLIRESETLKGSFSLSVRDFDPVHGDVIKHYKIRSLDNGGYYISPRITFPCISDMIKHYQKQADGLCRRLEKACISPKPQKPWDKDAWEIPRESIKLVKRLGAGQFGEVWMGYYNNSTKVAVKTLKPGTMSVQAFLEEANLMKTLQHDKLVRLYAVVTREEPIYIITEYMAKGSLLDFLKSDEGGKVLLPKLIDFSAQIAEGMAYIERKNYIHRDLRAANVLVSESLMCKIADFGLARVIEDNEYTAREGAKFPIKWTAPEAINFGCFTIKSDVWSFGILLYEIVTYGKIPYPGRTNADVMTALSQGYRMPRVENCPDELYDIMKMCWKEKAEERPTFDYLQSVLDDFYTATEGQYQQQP

CAMK4 = CAMK4 (Homo sapiens, UniProt Q16566); assay: biochemical; details: read-out: % enzyme activity, 1 μM; Run 1, Run 2
Chain of CAMK4 (Q16566 whole entry): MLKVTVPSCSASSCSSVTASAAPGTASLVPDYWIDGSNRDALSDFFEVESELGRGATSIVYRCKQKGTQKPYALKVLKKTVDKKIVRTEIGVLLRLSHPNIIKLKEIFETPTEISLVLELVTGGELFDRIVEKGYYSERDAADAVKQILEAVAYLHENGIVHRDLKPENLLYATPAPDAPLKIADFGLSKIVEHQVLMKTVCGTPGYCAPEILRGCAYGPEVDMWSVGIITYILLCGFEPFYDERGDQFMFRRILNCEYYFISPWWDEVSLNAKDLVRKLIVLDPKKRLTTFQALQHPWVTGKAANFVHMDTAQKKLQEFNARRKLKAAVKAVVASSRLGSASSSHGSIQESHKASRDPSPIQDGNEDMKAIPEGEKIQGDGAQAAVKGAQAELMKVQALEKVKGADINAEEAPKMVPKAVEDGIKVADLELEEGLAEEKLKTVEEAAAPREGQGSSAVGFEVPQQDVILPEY

MNK2 = MNK2 (Homo sapiens, UniProt Q9HBH9); assay: biochemical; details: read-out: % enzyme activity, 1 μM; Run 1, Run 2
Chain of MNK2 (Q9HBH9 whole entry): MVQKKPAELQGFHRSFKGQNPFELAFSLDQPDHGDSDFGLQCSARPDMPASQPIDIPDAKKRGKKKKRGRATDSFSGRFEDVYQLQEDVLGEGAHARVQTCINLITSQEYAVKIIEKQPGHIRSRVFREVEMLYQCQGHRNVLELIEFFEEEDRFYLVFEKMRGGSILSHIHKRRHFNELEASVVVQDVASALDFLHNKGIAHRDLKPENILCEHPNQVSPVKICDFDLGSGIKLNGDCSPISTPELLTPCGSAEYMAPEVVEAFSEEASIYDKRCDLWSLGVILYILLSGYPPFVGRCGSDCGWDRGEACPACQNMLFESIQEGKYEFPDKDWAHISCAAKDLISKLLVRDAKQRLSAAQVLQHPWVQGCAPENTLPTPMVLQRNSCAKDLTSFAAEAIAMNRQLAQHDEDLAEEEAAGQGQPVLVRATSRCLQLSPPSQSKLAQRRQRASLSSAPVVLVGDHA

GRK3 = molecular target: T3, GRK3 (Homo sapiens, UniProt P35626); assay: biochemical; details: read-out: % enzyme activity, 1 μM; Run 1, Run 2
T3 sequence (P35626 1-688): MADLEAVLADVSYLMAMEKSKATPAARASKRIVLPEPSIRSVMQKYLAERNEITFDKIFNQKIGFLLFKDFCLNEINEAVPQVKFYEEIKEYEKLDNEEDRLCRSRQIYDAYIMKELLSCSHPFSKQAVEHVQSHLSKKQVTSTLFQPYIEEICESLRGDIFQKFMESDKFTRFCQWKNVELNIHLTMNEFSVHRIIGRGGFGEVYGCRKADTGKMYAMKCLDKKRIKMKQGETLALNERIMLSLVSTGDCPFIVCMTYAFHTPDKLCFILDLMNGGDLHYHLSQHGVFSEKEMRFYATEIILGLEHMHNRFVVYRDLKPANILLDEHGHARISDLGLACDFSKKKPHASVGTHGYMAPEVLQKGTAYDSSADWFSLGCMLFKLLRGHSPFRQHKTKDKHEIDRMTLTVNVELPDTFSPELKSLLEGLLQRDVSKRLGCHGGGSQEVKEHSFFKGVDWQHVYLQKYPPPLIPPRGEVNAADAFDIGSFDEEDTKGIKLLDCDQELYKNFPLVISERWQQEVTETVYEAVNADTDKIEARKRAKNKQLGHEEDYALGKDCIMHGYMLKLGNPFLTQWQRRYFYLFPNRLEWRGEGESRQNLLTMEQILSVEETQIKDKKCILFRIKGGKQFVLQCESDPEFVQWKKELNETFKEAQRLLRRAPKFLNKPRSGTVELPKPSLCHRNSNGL

MST1/STK4 = molecular target: T4, MST1/STK4 (Homo sapiens, UniProt Q13043); details: 1 μM; Run 1, Run 2
T4 sequence (Q13043 1-487): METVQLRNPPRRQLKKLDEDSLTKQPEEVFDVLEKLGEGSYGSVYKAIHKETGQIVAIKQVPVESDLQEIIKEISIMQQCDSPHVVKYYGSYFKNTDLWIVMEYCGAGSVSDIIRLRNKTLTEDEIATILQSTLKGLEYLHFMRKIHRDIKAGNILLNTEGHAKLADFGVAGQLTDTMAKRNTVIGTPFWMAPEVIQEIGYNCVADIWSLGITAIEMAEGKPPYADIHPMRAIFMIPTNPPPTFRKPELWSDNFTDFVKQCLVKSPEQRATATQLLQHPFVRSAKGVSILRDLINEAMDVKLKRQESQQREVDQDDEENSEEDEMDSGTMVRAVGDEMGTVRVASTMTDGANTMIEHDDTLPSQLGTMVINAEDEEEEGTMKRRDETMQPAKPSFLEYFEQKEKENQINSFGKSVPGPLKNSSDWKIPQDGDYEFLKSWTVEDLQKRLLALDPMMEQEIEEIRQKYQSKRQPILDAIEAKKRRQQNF

[1] = read-out: CYP3A4-Midazolam IC50, substrate midazolam
[2] = read-out: CYP3A4-Testosterone IC50, substrate testosterone

Chain of TYK1/LTK (P29376 17-864): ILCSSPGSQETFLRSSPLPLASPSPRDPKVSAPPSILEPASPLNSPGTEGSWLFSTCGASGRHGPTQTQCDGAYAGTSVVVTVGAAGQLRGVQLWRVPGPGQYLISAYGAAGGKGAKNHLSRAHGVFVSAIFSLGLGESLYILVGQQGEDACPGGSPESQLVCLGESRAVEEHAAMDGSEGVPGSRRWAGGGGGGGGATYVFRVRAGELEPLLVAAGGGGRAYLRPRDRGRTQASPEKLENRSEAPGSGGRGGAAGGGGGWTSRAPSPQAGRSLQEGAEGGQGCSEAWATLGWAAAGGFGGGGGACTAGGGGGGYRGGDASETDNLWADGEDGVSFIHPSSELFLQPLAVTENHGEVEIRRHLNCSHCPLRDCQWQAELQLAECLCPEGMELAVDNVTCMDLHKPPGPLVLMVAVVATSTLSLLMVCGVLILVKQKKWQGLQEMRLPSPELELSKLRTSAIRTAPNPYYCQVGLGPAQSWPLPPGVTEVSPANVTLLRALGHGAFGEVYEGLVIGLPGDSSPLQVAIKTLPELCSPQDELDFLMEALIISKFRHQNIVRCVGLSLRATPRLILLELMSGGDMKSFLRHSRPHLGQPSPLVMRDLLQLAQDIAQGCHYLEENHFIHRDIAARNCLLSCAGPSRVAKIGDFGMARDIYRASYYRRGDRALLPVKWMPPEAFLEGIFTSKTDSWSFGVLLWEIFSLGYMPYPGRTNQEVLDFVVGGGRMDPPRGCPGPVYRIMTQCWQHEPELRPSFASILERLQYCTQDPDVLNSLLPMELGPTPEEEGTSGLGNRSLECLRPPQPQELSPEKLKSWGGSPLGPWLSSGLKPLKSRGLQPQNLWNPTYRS

## COc1cc(-c2cncc(-c3ccc(N4CCN(C)CC4)cc3)c2C)cc(F)c1C(N)=O [Compound 26a, 2-Fluoro-6-methoxy-4-(4-methyl-5-(4-(4-methylpiperazin-1-yl)phenyl)pyridin-3-yl)benzamide]
TYK1/LTK
  % enzyme activity: 99.76%
SGK1
  % enzyme activity: 93.48%
IKKa/CHUK
  remaining activity at 1 µM: 83.3%
FGFR4
  % enzyme activity: 97.61%
CYP3A4; [1]
  IC50: > 50 µM
CYP3A4; [2]
  IC50: > 50 µM
LYN B
  remaining activity at 1 µM: 99.2%
CAMK4
  remaining activity at 1 µM: 100%
MNK2
  remaining activity at 1 µM: 48.2%
GRK3
  remaining activity at 1 µM: 94.4%
MST1/STK4
  % enzyme activity: 100.26%

## COc1cc(-c2cncc(-c3ccc(N4C[C@@H](C)N(C)[C@@H](C)C4)cc3)c2C)cc(F)c1C(N)=O [Compound 26c, 2-Fluoro-6-methoxy-4-(4-methyl-5-(4-((3R,5S)-3,4,5-trimethylpiperazin-1-yl)phenyl)pyridin-3-yl)benzamide]
TYK1/LTK
  % enzyme activity: 99.99%
SGK1
  % enzyme activity: 95.22%
IKKa/CHUK
  remaining activity at 1 µM: 87.4%
FGFR4
  % enzyme activity: 98.99%
CYP3A4; [1]
  IC50: > 50 µM
CYP3A4; [2]
  IC50: > 50 µM
LYN B
  remaining activity at 1 µM: 98.2%
CAMK4
  remaining activity at 1 µM: 103%
MNK2
  remaining activity at 1 µM: 70.8%
GRK3
  remaining activity at 1 µM: 96.1%
MST1/STK4
  % enzyme activity: 101.65%

Reference: article PMC8213057, “Targeting ALK2: An Open Science Approach to Developing Therapeutics for the Treatment of Diffuse Intrinsic Pontine Glioma” (Journal of Medicinal Chemistry, 2020)
